Results as given in patent US20060239999A1, “Preventive and/or therapeutic drugs for asthma” (priority 2002, published 2006).

What was measured:
[1] = target: T1, GPR4 (Homo sapiens, UniProt P46093); assay: Antagonistic action on GPR4 (luciferase reporter in GPR4 assay cells induced by 17β-estradiol); type: cell-based; details: 10 nmol/L 17β-estradiol, 6 hours, luciferase luminescence
T1 construct: expressed in transfected cells; host or cells: KJMGER8 (Namalwa KJM-1 human B-cell line stably expressing Gal4-ER), co-transfected with pAGal9-GPR4 and the CRE-luciferase reporter pACREpluc
T1 sequence (P46093 whole entry, the tested form may be a part): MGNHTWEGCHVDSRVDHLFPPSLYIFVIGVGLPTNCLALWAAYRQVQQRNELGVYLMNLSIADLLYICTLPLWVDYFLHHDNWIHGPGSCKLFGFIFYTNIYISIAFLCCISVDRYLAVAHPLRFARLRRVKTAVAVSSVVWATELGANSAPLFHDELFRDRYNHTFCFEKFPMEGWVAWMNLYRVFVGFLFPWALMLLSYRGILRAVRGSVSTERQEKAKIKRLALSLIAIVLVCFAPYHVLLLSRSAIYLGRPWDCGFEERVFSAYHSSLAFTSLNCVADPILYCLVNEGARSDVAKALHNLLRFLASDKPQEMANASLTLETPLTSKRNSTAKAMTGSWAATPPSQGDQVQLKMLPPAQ
Description: Cells for GPR4 assay prepared in Referential Example 61 (said assay cells express GPR4 by stimulation with 17β-estradiol) were seeded on white plates at the rate of 10^5 cells/well, and a solution where 17β-estradiol (manufactured by Sigma) was diluted with a medium so as to make 10 nmol/L in the reaction solution and test compounds were added to the plate and the mixture was incubated at 37° C. for 6 hours in a 5% CO2 incubator. After that, a Steady Glo Luciferase Assay System (manufactured by Promega) solution was added to stop the reaction and the amount of luminescence during one second was measured using a Top Count (Packard, Meriden, Conn., U.S.
Activity of the each of test compounds (antagonistic action) was expressed by an inhibition rate calculated on the basis of counts per second in the presence or absence of 17β-estradiol as shown by the following formula. IC50 value was calculated from the inhibition rate by a linear approximate analysis of the Logit-Log conversion method.
In the formula, A, B and C each have the following meaning, respectively.
A: counts per second when 17β-estradiol and the test compound were added
B: counts per second when neither 17β-estradiol nor the test compound was added
C: counts per second when only 17β-estradiol was added
Inhibition Rate (%) [1−{(A−B)/(C−B)}]×100
1 μg of mRNA derived from human lung (manufactured by Clontech) was used and a single-stranded cDNA was synthesized using a SUPERSCRIPT First-Stranded Synthesis System for RT-PCR (manufactured by Gibco). GPR4 cDNA was prepared by PCR using a solution (5 μl) where said single-stranded cDNA was diluted with water to an extent of 250-fold as a template and synthetic DNA having nucleotide sequences represented by SEQ ID NO: 7 and NO: 8 as a GPR4 gene-specific primer. Sequence of the GPR4 gene-specific primer was designed on the basis of sequence information of GPR4 gene (GenBank Accession No. U21051). With regard to an enzyme, PfuTurbo DNA Polymerase (manufactured by Stratagene) was used. With regard to a buffer for conducting the PCR, a buffer of 10-fold concentration attached to the enzyme was used. The PCR was conducted by treating at 95° C. for 5 minutes and conducting 30 cycles of reaction each comprising at 94° C. for 1 minute, at 60° C. for 1 minute and at 72° C. for 1 minute using a thermal cycler DNA engine (manufactured by MJ Research).
2 μg of plasmid pAGal9-GPR4 with inducible expression of GPR4 and 2 μg of reporter plasmid pACREpluc were co-transferred into 6×10^6 cell of KJMGER8 by the above-mentioned electroporation. The transformants were suspended in 8 ml of an RPMI 1640-ITPSG medium and cultured in a CO2 incubator at 37° C. for 24 hours. After the cultivation, blasticidin S (2.0 μg/ml), hygromycin B (300 μg/ml) and geneticin (500 μg/ml) were added and cultivation was carried-out for 14 days more, and stable transformants (called GPR4 assay cells) were obtained. The transformants were subcultured in an RPMI 1640-ITPSG medium containing blasticidin S (2.0 μg/ml), hygromycin B (300 μg/ml) and geneticin (500 μg/ml).

[2] = system: BALB/c male mice; assay: Suppressive effect on antigen-induced eosinophil infiltration in airway (bronchoalveolar lavage fluid); type: in vivo; details: for Eosinophil numbers in bronchoalveolar lavage fluid: 24 hours after final antigen inhalation, compound 1 100 mg/kg orally 1 hour before and 6 hours after each antigen, prednisolone 30 mg/kg orally once before each antigen; for eosinophil numbers decreased as compared with the positive control group: compound 1 100 mg/kg orally, prednisolone 30 mg/kg orally
Description: (§1) Suspention prepared by mixing of 50 μg of ovalbumin and 1 mg of aluminum hydroxide in a physiological saline solution (Otsuka Physiological Saline; manufactured by Otsuka. Pharmaceutical) was intraperitoneally administered to BALB/c male mice (7 weeks age) for two times with an interval of one week to sensitize and, after 14, 18 and 22 days from the final sensitization, 1% solution of ovalbumin in a physiological saline solution or a physiological saline solution (a negative control group) was inhaled for 30 minutes respectively to induce an antigen-antibody reaction. In the case of measurement of bronchoconstriction, compound 1 was suspended in a 0.5% aqueous solution of methylcellulose (solvent) and, 1 hour before inhalation of antigen after 14 days from the final sensitization 100 mg/kg of the suspention was orally administered or, 5 minutes before that, 30 mg/kg was intraperitoneally administered. In the case of measurement of airway hyperreactivity or eosinophil infiltration in airway, compound 1 was suspended as mentioned above and, after 14, 18 and 22 days from the final sensitization, 100 mg/kg of the suspention was orally administered 1 hour before and 6 hours after inhalation of each antigen. As a reference drug, prednisolone which is a steroid used for the treatment of asthma was orally administered at a dose of 30 mg/kg (as a solution being suspended in 0.5% aqueous solution of methylcellulose) once, 1 hour before inhalation of each antigen after 14, 18 and 22 days from the final sensitization. In a positive control group, the solvent was administered instead of a suspension of a test compound. […]
(§2) With regard to the bronchoconstriction, airway resistance (penh) was evaluated by a measuring apparatus for respiration function of mice (BioSystems XA; Buxco Electronics, Inc., Sharon, Conn., U.S.A.) for 30 minutes from immediately after inhalation of antigen after 14 days from the final sensitization and evaluation was conducted by calculating the area under curve during the 30 minutes (AUC0-30 min). Further, after 24 hours from final inhalation of antigen, airway hyperreactivity and eosinophil infiltration in bronchoalveolar lavage fluid were evaluated.
(§3) With regard to eosinophil filtration, total cell numbers in the bronchoalveolar lavage fluid were measured by an automatic measuring apparatus for blood cell count (Celltac α MEK-6158; Nippon Koden, Tokyo), then the smears were prepared by Cytospin 3 (Shandon, Inc., Pittsburgh, Pa., U.S.A.) and evaluation was conducted by a morphological classification under a microscope. Eosinophil numbers were calculated by multiplying the total cell numbers by percentage of eosinophil cells. […]

[3] = system: BALB/c male mice; assay: Suppressive effect on antigen-induced airway hyperreactivity (methacholine inhalation); type: in vivo; details: for airway hyperreactivity suppressed as compared with the positive control group: compound 1 100 mg/kg orally, prednisolone 30 mg/kg orally; for AUC of airway hyperreactivity: methacholine 1.5 to 25 mg/ml, compound 1 100 mg/kg orally 1 hour before and 6 hours after each antigen, prednisolone 30 mg/kg orally once before each antigen, mean value±standard error
Description: as §1, §2, §3

[4] = system: BALB/c male mice; assay: Suppressive effect on antigen-induced bronchoconstriction (airway resistance penh); type: in vivo; details: for AUC0-30min of the bronchoconstriction: ovalbumin-sensitized mice, mean value±standard error
Description: Suspention prepared by mixing of 50 μg of ovalbumin and 1 mg of aluminum hydroxide in a physiological saline solution (Otsuka Physiological Saline; manufactured by Otsuka. Pharmaceutical) was intraperitoneally administered to BALB/c male mice (7 weeks age) for two times with an interval of one week to sensitize and, after 14, 18 and 22 days from the final sensitization, 1% solution of ovalbumin in a physiological saline solution or a physiological saline solution (a negative control group) was inhaled for 30 minutes respectively to induce an antigen-antibody reaction. In the case of measurement of bronchoconstriction, compound 1 was suspended in a 0.5% aqueous solution of methylcellulose (solvent) and, 1 hour before inhalation of antigen after 14 days from the final sensitization 100 mg/kg of the suspention was orally administered or, 5 minutes before that, 30 mg/kg was intraperitoneally administered. In the case of measurement of airway hyperreactivity or eosinophil infiltration in airway, compound 1 was suspended as mentioned above and, after 14, 18 and 22 days from the final sensitization, 100 mg/kg of the suspention was orally administered 1 hour before and 6 hours after inhalation of each antigen. As a reference drug, prednisolone which is a steroid used for the treatment of asthma was orally administered at a dose of 30 mg/kg (as a solution being suspended in 0.5% aqueous solution of methylcellulose) once, 1 hour before inhalation of each antigen after 14, 18 and 22 days from the final sensitization. In a positive control group, the solvent was administered instead of a suspension of a test compound. (In the case of measurement of bronchoconstriction, the solvent was administered once, 1 hour before inhalation of antigen after 14 days from the final sensitization as for oral administration, or the solvent was administered once 30 minutes before inhalation of antigen after 14 days from the final sensitization as for intraperitoneal administration. In the case of measurement of airway hyperreactivity and eosinophil infiltration in airway, the solvent was administered 1 hour before and 6 hours after inhalation of each antigen after 14, 18 and 22 days from the final sensitization.)
as §2

| IC50 [1] | Structure (SMILES) | Eosinophil numbers in bronchoalveolar lavage fluid [2] | eosinophil numbers decreased as compared with the positive control group [2] | airway hyperreactivity suppressed as compared with the positive control group [3] | AUC of airway hyperreactivity [3] | further results |
| --- | --- | --- | --- | --- | --- | --- |
| 2.3 nM | CCc1nc2c(C)cc(C)nc2n1Cc1ccc2c(c1)CCc1cc(CN3CCCC3)ccc1N2 [Compound 3, 2-(2-Ethyl-5,7-dimethyl-3H-imidazo[4,5-b]pyridin-3-ylmethyl)-8-(pyrrolidin-1-ylmethyl)-10,11-dihydro-5H-dibenz[b,f]azepine] | – | – | – | – | – |
| 5.8 nM | CCc1nc2c(C)cc(C)nc2n1Cc1ccc2c(c1)CCc1cc(CN3CCOCC3)ccc1N2 [Compound 4, 2-(2-Ethyl-5,7-dimethyl-3H-imidazo[4,5-b]pyridin-3-ylmethyl)-8-morpholinomethyl-10,11-dihydro-5H-dibenz[b,f]a zepine] | – | – | – | – | – |
| 4 nM | CCc1nc2c(C)cc(C)nc2n1Cc1ccc2c(c1)CCc1cc(CN3CCN(C)CC3)ccc1N2 [Compound 1, 2-(2-Ethyl-5,7-dimethyl-3H-imidazo[4,5-b]pyridin-3-ylmethyl)-8-(4-methylpiperazin-1-ylmethyl)-10,11-dihydro-5H-dibenz[b,f]azepine] | 0.92±0.26 ×10^5 per mouse | 67% | 60% | 243.23±48.7 | bronchoconstriction suppressed as compared with the positive control group ([4]; 30 mg/kg intraperitoneally): 105%; bronchoconstriction suppressed as compared with the positive control group ([4]; 100 mg/kg orally): 44%; AUC0-30min of the bronchoconstriction ([4]; 30 mg/kg intraperitoneally before antigen inhalation): 14.60±0.46; AUC0-30min of the bronchoconstriction ([4]; 100 mg/kg orally 1 hour before antigen inhalation): 16.85±0.84 |

The remaining lines, values behind:

| Structure (SMILES) | IC50 [1] | Eosinophil numbers in bronchoalveolar lavage fluid [2] | eosinophil numbers decreased as compared with the positive control group [2] | airway hyperreactivity suppressed as compared with the positive control group [3] | AUC of airway hyperreactivity [3] | further results |
| --- | --- | --- | --- | --- | --- | --- |
| C[C@]12C=CC(=O)C=C1CC[C@@H]1[C@@H]2[C@@H](O)C[C@@]2(C)[C@H]1CC[C@]2(O)C(=O)CO [prednisolone, reference compound] | – | 0.76±0.25 ×10^5 per mouse | 73% | 43% | 269.12±46.7 | – |
| CCc1nc2c(C)cc(C)nc2n1Cc1ccc2c(c1)CCc1cc(CN3CC(C)CC(C)C3)ccc1N2 (centres unmarked) [Compound 5] | 14 nM | – | – | – | – | – |
| CCc1nc2c(C)cc(C)nc2n1Cc1ccc2c(c1)CCc1cc(CN3CC=CCC3)ccc1N2 [Compound 2, 2-(2-Ethyl-5,7-dimethyl-3H-imidazo[4,5-b]pyridin-3-ylmethyl)-8-(1,2,5,6-tetrahydropyridin-1-ylmethyl)-10,11-dihydro-5H-dibenz[b,f]azepine] | 3.2 nM | – | – | – | – | – |
